# Measured values published in PMC11270923 (BMC Chemistry, 2024).
# Legend:
# [1] = 298.15 K, methanol + water, 0.1 methanol weight fraction; cited from earlier work
# [2] = Shake-flask solubility of acetaminophen in aqueous protic ionic liquid solutions (UV-vis at 243 nm); type: physicochemical
# Experimental: The experimental solubility results were determined using a variety of techniques, including the shake-flask method. Aqueous binary mixtures based on PILs have been made utilizing an analytical balance with a 10^–4 g precision for determining the solubility results. Glass vials with a specific amount of water + PILs were filled with the extra acetaminophen. Following that, the samples were combined for 3 h and left for three days in a water bath thermostat (ED, Julabo Co., Germany) with temperature control and an uncertainty of 0.01 K. To separate the liquid and solid phases, a Hettich D-7200 centrifuge was employed (with 4000 RPM at room temperature at 10 min). An ethanol + water solution was applied to dilute the liquid phase after the saturated solutions were filtered through a […] PTFE filter. Subsequently, the drug concentration in the solutions was ascertained using a calibration curve and a UV–vis spectrometer at 243 nm.
compound,measurement,setting,value
"CC(=O)Nc1ccc(O)cc1 [ACP, Acetaminophen]",ACP solubility,[1],2.65 × 10^–3 mole fraction
same,solubility 10^5x1^exp,[2]; water+[DEA]La w3=0.0000 298.15 K 866 hPa,1.839 mole fraction x10^5
same,solubility 10^5x1^exp,[2]; water+[DEA]La w3=0.0000 303.15 K 866 hPa,2.239 mole fraction x10^5
same,solubility 10^5x1^exp,[2]; water+[DEA]La w3=0.0000 308.15 K 866 hPa,2.545 mole fraction x10^5
same,solubility 10^5x1^exp,[2]; water+[DEA]La w3=0.0000 313.15 K 866 hPa,3.009 mole fraction x10^5
same,solubility 10^5x1^exp,[2]; water+[DEA]La w3=0.0200 298.15 K 866 hPa,2.492 mole fraction x10^5
same,solubility 10^5x1^exp,[2]; water+[DEA]La w3=0.0200 303.15 K 866 hPa,3.159 mole fraction x10^5
same,solubility 10^5x1^exp,[2]; water+[DEA]La w3=0.0200 308.15 K 866 hPa,3.555 mole fraction x10^5
same,solubility 10^5x1^exp,[2]; water+[DEA]La w3=0.0200 313.15 K 866 hPa,3.722 mole fraction x10^5
same,solubility 10^5x1^exp,[2]; water+[DEA]La w3=0.0500 298.15 K 866 hPa,3.181 mole fraction x10^5
same,solubility 10^5x1^exp,[2]; water+[DEA]La w3=0.0500 303.15 K 866 hPa,3.576 mole fraction x10^5
same,solubility 10^5x1^exp,[2]; water+[DEA]La w3=0.0500 308.15 K 866 hPa,3.917 mole fraction x10^5
same,solubility 10^5x1^exp,[2]; water+[DEA]La w3=0.0500 313.15 K 866 hPa,4.227 mole fraction x10^5
same,solubility 10^5x1^exp,[2]; water+[DEA]La w3=0.0700 298.15 K 866 hPa,3.452 mole fraction x10^5
same,solubility 10^5x1^exp,[2]; water+[DEA]La w3=0.0700 303.15 K 866 hPa,3.977 mole fraction x10^5
same,solubility 10^5x1^exp,[2]; water+[DEA]La w3=0.0700 308.15 K 866 hPa,4.167 mole fraction x10^5
same,solubility 10^5x1^exp,[2]; water+[DEA]La w3=0.0700 313.15 K 866 hPa,4.514 mole fraction x10^5
same,solubility 10^5x1^exp,[2]; water+[DEA]La w3=0.1000 298.15 K 866 hPa,3.849 mole fraction x10^5
same,solubility 10^5x1^exp,[2]; water+[DEA]La w3=0.1000 303.15 K 866 hPa,4.220 mole fraction x10^5
same,solubility 10^5x1^exp,[2]; water+[DEA]La w3=0.1000 308.15 K 866 hPa,4.793 mole fraction x10^5
same,solubility 10^5x1^exp,[2]; water+[DEA]La w3=0.1000 313.15 K 866 hPa,5.266 mole fraction x10^5
same,solubility 10^5x1^exp,[2]; water+[DEA]La w3=0.1500 298.15 K 866 hPa,4.290 mole fraction x10^5
same,solubility 10^5x1^exp,[2]; water+[DEA]La w3=0.1500 303.15 K 866 hPa,4.611 mole fraction x10^5
same,solubility 10^5x1^exp,[2]; water+[DEA]La w3=0.1500 308.15 K 866 hPa,5.038 mole fraction x10^5
same,solubility 10^5x1^exp,[2]; water+[DEA]La w3=0.1500 313.15 K 866 hPa,5.633 mole fraction x10^5
same,solubility 10^5x1^exp,[2]; water+[DEA]La w3=0.2000 298.15 K 866 hPa,4.669 mole fraction x10^5
same,solubility 10^5x1^exp,[2]; water+[DEA]La w3=0.2000 303.15 K 866 hPa,5.223 mole fraction x10^5
same,solubility 10^5x1^exp,[2]; water+[DEA]La w3=0.2000 308.15 K 866 hPa,5.710 mole fraction x10^5
same,solubility 10^5x1^exp,[2]; water+[DEA]La w3=0.2000 313.15 K 866 hPa,6.188 mole fraction x10^5
same,solubility 10^5x1^exp,[2]; water+[MEA]La w3=0.0000 298.15 K 866 hPa,1.839 mole fraction x10^5
same,solubility 10^5x1^exp,[2]; water+[MEA]La w3=0.0000 303.15 K 866 hPa,2.239 mole fraction x10^5
same,solubility 10^5x1^exp,[2]; water+[MEA]La w3=0.0000 308.15 K 866 hPa,2.545 mole fraction x10^5
same,solubility 10^5x1^exp,[2]; water+[MEA]La w3=0.0000 313.15 K 866 hPa,3.009 mole fraction x10^5
same,solubility 10^5x1^exp,[2]; water+[MEA]La w3=0.0200 298.15 K 866 hPa,2.750 mole fraction x10^5
same,solubility 10^5x1^exp,[2]; water+[MEA]La w3=0.0200 303.15 K 866 hPa,3.417 mole fraction x10^5
same,solubility 10^5x1^exp,[2]; water+[MEA]La w3=0.0200 308.15 K 866 hPa,3.802 mole fraction x10^5
same,solubility 10^5x1^exp,[2]; water+[MEA]La w3=0.0200 313.15 K 866 hPa,4.007 mole fraction x10^5
same,solubility 10^5x1^exp,[2]; water+[MEA]La w3=0.0500 298.15 K 866 hPa,3.256 mole fraction x10^5
same,solubility 10^5x1^exp,[2]; water+[MEA]La w3=0.0500 303.15 K 866 hPa,3.861 mole fraction x10^5
same,solubility 10^5x1^exp,[2]; water+[MEA]La w3=0.0500 308.15 K 866 hPa,4.055 mole fraction x10^5
same,solubility 10^5x1^exp,[2]; water+[MEA]La w3=0.0500 313.15 K 866 hPa,4.320 mole fraction x10^5
same,solubility 10^5x1^exp,[2]; water+[MEA]La w3=0.0700 298.15 K 866 hPa,3.884 mole fraction x10^5
same,solubility 10^5x1^exp,[2]; water+[MEA]La w3=0.0700 303.15 K 866 hPa,4.588 mole fraction x10^5
same,solubility 10^5x1^exp,[2]; water+[MEA]La w3=0.0700 308.15 K 866 hPa,4.675 mole fraction x10^5
same,solubility 10^5x1^exp,[2]; water+[MEA]La w3=0.0700 313.15 K 866 hPa,5.025 mole fraction x10^5
same,solubility 10^5x1^exp,[2]; water+[MEA]La w3=0.1000 298.15 K 866 hPa,4.380 mole fraction x10^5
same,solubility 10^5x1^exp,[2]; water+[MEA]La w3=0.1000 303.15 K 866 hPa,4.807 mole fraction x10^5
same,solubility 10^5x1^exp,[2]; water+[MEA]La w3=0.1000 308.15 K 866 hPa,5.407 mole fraction x10^5
same,solubility 10^5x1^exp,[2]; water+[MEA]La w3=0.1000 313.15 K 866 hPa,5.600 mole fraction x10^5
same,solubility 10^5x1^exp,[2]; water+[MEA]La w3=0.1500 298.15 K 866 hPa,4.962 mole fraction x10^5
same,solubility 10^5x1^exp,[2]; water+[MEA]La w3=0.1500 303.15 K 866 hPa,5.658 mole fraction x10^5
same,solubility 10^5x1^exp,[2]; water+[MEA]La w3=0.1500 308.15 K 866 hPa,6.128 mole fraction x10^5
same,solubility 10^5x1^exp,[2]; water+[MEA]La w3=0.1500 313.15 K 866 hPa,6.665 mole fraction x10^5
same,solubility 10^5x1^exp,[2]; water+[MEA]La w3=0.2000 298.15 K 866 hPa,5.589 mole fraction x10^5
same,solubility 10^5x1^exp,[2]; water+[MEA]La w3=0.2000 303.15 K 866 hPa,6.123 mole fraction x10^5
same,solubility 10^5x1^exp,[2]; water+[MEA]La w3=0.2000 308.15 K 866 hPa,6.695 mole fraction x10^5
same,solubility 10^5x1^exp,[2]; water+[MEA]La w3=0.2000 313.15 K 866 hPa,7.337 mole fraction x10^5
same,solubility 10^5x1^exp,[2]; water+[TEA]La w3=0.0000 298.15 K 866 hPa,1.839 mole fraction x10^5
same,solubility 10^5x1^exp,[2]; water+[TEA]La w3=0.0000 303.15 K 866 hPa,2.239 mole fraction x10^5
same,solubility 10^5x1^exp,[2]; water+[TEA]La w3=0.0000 308.15 K 866 hPa,2.545 mole fraction x10^5
same,solubility 10^5x1^exp,[2]; water+[TEA]La w3=0.0000 313.15 K 866 hPa,3.009 mole fraction x10^5
same,solubility 10^5x1^exp,[2]; water+[TEA]La w3=0.0200 298.15 K 866 hPa,2.161 mole fraction x10^5
same,solubility 10^5x1^exp,[2]; water+[TEA]La w3=0.0200 303.15 K 866 hPa,2.632 mole fraction x10^5
same,solubility 10^5x1^exp,[2]; water+[TEA]La w3=0.0200 308.15 K 866 hPa,2.940 mole fraction x10^5
same,solubility 10^5x1^exp,[2]; water+[TEA]La w3=0.0200 313.15 K 866 hPa,3.334 mole fraction x10^5
same,solubility 10^5x1^exp,[2]; water+[TEA]La w3=0.0500 298.15 K 866 hPa,2.597 mole fraction x10^5
same,solubility 10^5x1^exp,[2]; water+[TEA]La w3=0.0500 303.15 K 866 hPa,2.944 mole fraction x10^5
same,solubility 10^5x1^exp,[2]; water+[TEA]La w3=0.0500 308.15 K 866 hPa,3.210 mole fraction x10^5
same,solubility 10^5x1^exp,[2]; water+[TEA]La w3=0.0500 313.15 K 866 hPa,3.521 mole fraction x10^5
same,solubility 10^5x1^exp,[2]; water+[TEA]La w3=0.0700 298.15 K 866 hPa,2.908 mole fraction x10^5
same,solubility 10^5x1^exp,[2]; water+[TEA]La w3=0.0700 303.15 K 866 hPa,3.461 mole fraction x10^5
same,solubility 10^5x1^exp,[2]; water+[TEA]La w3=0.0700 308.15 K 866 hPa,3.584 mole fraction x10^5
same,solubility 10^5x1^exp,[2]; water+[TEA]La w3=0.0700 313.15 K 866 hPa,3.929 mole fraction x10^5
same,solubility 10^5x1^exp,[2]; water+[TEA]La w3=0.1000 298.15 K 866 hPa,3.094 mole fraction x10^5
same,solubility 10^5x1^exp,[2]; water+[TEA]La w3=0.1000 303.15 K 866 hPa,3.834 mole fraction x10^5
same,solubility 10^5x1^exp,[2]; water+[TEA]La w3=0.1000 308.15 K 866 hPa,4.208 mole fraction x10^5
same,solubility 10^5x1^exp,[2]; water+[TEA]La w3=0.1000 313.15 K 866 hPa,4.349 mole fraction x10^5
same,solubility 10^5x1^exp,[2]; water+[TEA]La w3=0.1500 298.15 K 866 hPa,3.958 mole fraction x10^5
same,solubility 10^5x1^exp,[2]; water+[TEA]La w3=0.1500 303.15 K 866 hPa,4.151 mole fraction x10^5
same,solubility 10^5x1^exp,[2]; water+[TEA]La w3=0.1500 308.15 K 866 hPa,4.940 mole fraction x10^5
same,solubility 10^5x1^exp,[2]; water+[TEA]La w3=0.1500 313.15 K 866 hPa,5.167 mole fraction x10^5
same,solubility 10^5x1^exp,[2]; water+[TEA]La w3=0.2000 298.15 K 866 hPa,4.309 mole fraction x10^5
same,solubility 10^5x1^exp,[2]; water+[TEA]La w3=0.2000 303.15 K 866 hPa,4.778 mole fraction x10^5
same,solubility 10^5x1^exp,[2]; water+[TEA]La w3=0.2000 308.15 K 866 hPa,5.362 mole fraction x10^5
same,solubility 10^5x1^exp,[2]; water+[TEA]La w3=0.2000 313.15 K 866 hPa,5.751 mole fraction x10^5
